This is an account of results in PMC7582876, “Antiproliferative Properties of a Few Auranofin-Related Gold(I) and Silver(I) Complexes in Leukemia Cells and their Interferences with the Ubiquitin Proteasome System” (Molecules, 2020).

One assay has as its system CCRF-CEM cells. The experiment in a line: Resazurin cytotoxicity assay, drug-sensitive CCRF-CEM leukemia cells. It counts as cell-based, human. Particulars: cell growth, 72 h incubation, IC50 ± SD, n = 3. Here is the method:
(§1) Drug-sensitive CCRF-CEM and multidrug-resistant (MDR) P-glycoprotein (P-gp)-over-expressing CEM/ADR5000 leukemic cells were kindly provided by Prof. Axel Sauerbrey (Department of Pediatrics, University of Jena, Germany). Cells were cultured in RPMA1640 medium including 10% fetal bovine serum (FBS) and 1% penicillin (1000 U/mL)/streptomycin (100 µg/mL) (Life Technologies, Darmstadt, Germany). Doxorubicin (5000 ng/mL) was added to maintain overexpression of P-gp (MDR1 and ABCB1) in CEM/ADR5000 cells. Doxorubicin was obtained from the University Pharmacy of the University Medical Center Mainz. CEM/ADR5000 cells display a more than 1000-fold resistance to doxorubicin [27] and are therefore a suitable model to identify novel drugs without or very low cross-resistance.
(§2) The cytotoxic effects of the compounds solved in DMSO (Sigma-Aldrich, Taufkirchen, Germany) were tested by the resazurin assay. This assay is based on reduction of the indicator dye, resazurin, to the highly fluorescent resorufin by viable cells. Cells lethally damaged by cytotoxic compounds rapidly lose the enzymatic capability to reduce non-fluorescent resazurin to the highly fluorescent resorufin. As the reductive potential happens in a dose-dependent manner, this chemical reaction can be exploited to quantitatively determine the cytotoxic potential of investigational compounds and to measure dose-response relationships. With increasing concentrations of a cytotoxic drug, the fluorescence signal fades out. Aliquots of 10,000 cells/100 µL cells were seeded into 96-well plates (Thermo-Scientific, Dreieich, Germany) and immediately treated with various concentrations of each compound. After 72 h incubation at 37 °C, 20 µL resazurin 0.01% w/v solution (Invitrogen, Dreieich, Germany) were added to each well, and the plates were maintained at 37 °C for 4 h. Fluorescence was measuring by an Infinite M2000 Proplate reader (Tecan, Crailsheim, Germany) with an excitation wavelength of 544 nm and an emission wavelength of 590 nm. Each experiment was done at least three times with six replicates each. The viability was analyzed in comparison with untreated cells. […] It is a well-established measure to determine the cytotoxic potential of anticancer drugs. The IC50 values were calculated from a calibration curve by linear regression using Microsoft Excel.
Background: The colour change of resazurin is a common sign of viable cells or microbes.

Assay [1] has as its target T1, chymotrypsin-like (ChT-L) activity of human 20S proteasome (Homo sapiens, UniProt P28074).
T1 construct: 20S proteasome, isolated and purified from human erythrocytes; purchased Biomol GmbH, Hamburg, Germany; host or cells: human erythrocytes (native complex)
The experiment in a line: Inhibition of chymotrypsin-like activity of 20S proteasome (Suc-Leu-Leu-Val-Tyr-AMC). It counts as biochemical. The following applies: for ChT-L inhibition at 10 µM: over 10 min; for IC50: 10 min, no pre-incubation, 30 °C. Here is the method: (§3) 20S proteasome, isolated and purified from human erythrocytes, was obtained from a commercial source (Biomol GmbH, Hamburg, Germany), as well as the peptidic substrates (Bachem, Bubendorf, Switzerland) Suc-Leu-Leu-Val-Tyr-AMC, Boc-Leu-Arg-Arg-AMC and Cbz-Leu-Leu-Glu-AMC for ChT-L, T-L and PGPH (C-L) activity of the enzyme, respectively. The three distinct proteolytic activities of the 20S proteasome were measured by monitoring the hydrolysis of the substrates and detecting the fluorescence of the common product released, i.e., 7-amino-4-methyl coumarin (7-AMC), by means of an Infinite 200 PRO microplate reader (Tecan, Männedorf, Switzerland) at 30 °C with a 380-nm excitation filter and a 460-nm emission filter. All gold and silver complexes were tested against the three proteolytic activities of the 20S proteasome and against Cat-B, Cat-L and bovine pancreatic α-chymotrypsin at 10 µM concentrations over a period of 10 min using an equivalent amount of DMSO as a negative control. […] The IC50 values were calculated with the program GraFit® using the two-parameter equation. More detailed experimental protocols for the assays against each proteolytic activity of the 20S proteasome, as well as against bovine pancreatic α-chymotrypsin, are already reported elsewhere (see also Supplementary Materials). Cat-B and Cat-L were purchased from Calbiochem, Darmstadt, Germany, and the related assays were performed as previously described. The employed fluorogenic substrate for both cysteine proteases was Cbz-Phe-Arg-AMC (80 µM for Cat-B; 5 µM for Cat-L). […]
Inhibition assay for the Chymotryptic Activity of the 20S Proteasome
Human 20S proteasome was incubated at 30 °C at a final concentration of 0.004 mg∙mL−1
with test compound present at 10 µM (screening assay) or at variable concentrations
(continuous assay). The reaction buffer consisted of 50 mM Tris pH 7.5, 10 mM NaCl, 25
mM KCl, 1 mM MgCl2, 0.03% SDS and 5% DMSO. Product release from substrate
hydrolysis ([…]) was monitored continuously over a period of 10 min. […]

Assay [2] addresses T2, peptidyl-glutamyl peptide-hydrolyzing (PGPH or caspase-like C-L) activity of human 20S proteasome (Homo sapiens, UniProt P28072).
T2 construct: 20S proteasome, isolated and purified from human erythrocytes; purchased Biomol GmbH, Hamburg, Germany; host or cells: human erythrocytes (native complex)
As to the kind of experiment: Inhibition of peptidyl-glutamyl peptide-hydrolyzing activity of 20S proteasome (Cbz-Leu-Leu-Glu-AMC). It counts as biochemical. Particulars: for PGPH (C-L) inhibition at 10 µM: over 10 min; for IC50: 10 min, no pre-incubation, 30 °C. Here is the method: as §3
Inhibition assay for the Post-Glutamyl Peptide Hydrolyzing Activity of the 20S
with the test compound present at 10 µM (screening assay) or variable concentrations. The
reaction buffer consisted of 50 mM Tris buffer pH 7.5 containing 25 mM KCl, 10 mM NaCl,
1 mM MgCl2, 0.03% SDS, 5% DMSO. Product release from substrate hydrolysis ([…])
was monitored continuously over a period of 10 min.

In another assay the test system is CEM/ADR5000 cells. As to the kind of experiment: Resazurin cytotoxicity assay, multidrug-resistant CEM/ADR5000 leukemia cells. It counts as cell-based, human. The following applies: for IC50: cell growth, resazurin assay, 72 h incubation, IC50 ± SD, n = 3; for Degree of Resistance: ratio of IC50 of CEM/ADR5000 cells divided by IC50 of CCRF-CEM cells. Here is the method:
as §1, §2

One may read the IC50 as the point on the concentration scale where inhibition reaches its midpoint. A lower IC50 goes with greater potency in that assay. Molecule `CC[PH](CC)(CC)[Ag][Br]` [Ag(PEt3)Br] registered an IC50 in the assay on CCRF-CEM cells of 1500 ± 100 nM. Further, the “ChT-L inhibition at 10 µM” value in assay [1] stood at 22 ± 0.4%. Moreover, the “PGPH (C-L) inhibition at 10 µM” value in assay [2] is “n.i”. Moreover, in the assay on CEM/ADR5000 cells, the IC50 came to 3890 ± 700 nM and the “Degree of Resistance” value amounted to 2.59.

`CC[PH](CC)(CC)[Ag][Cl]` [Ag(PEt3)Cl] came in with an IC50 with CCRF-CEM cells of 1360 ± 250 nM. In assay [1], the “ChT-L inhibition at 10 µM” value amounted to 28 ± 0.5%. Also, the “PGPH (C-L) inhibition at 10 µM” value in assay [2] is “n.i”. In addition, in the assay with CEM/ADR5000 cells, the IC50 came out at 2640 ± 480 nM and the “Degree of Resistance” value worked out at 1.94.

The molecule `CC[PH](CC)(CC)[Ag][I]` [Ag(PEt3)I] showed a concentration for half-maximal inhibition (IC50) in the assay with CCRF-CEM cells of 1280 ± 120 nM. For the same molecule, the “ChT-L inhibition at 10 µM” value in assay [1] was found to be 25 ± 0.2%. Also, in assay [2], the “PGPH (C-L) inhibition at 10 µM” value is “n.i”. In the assay on CEM/ADR5000 cells, inhibition was half-maximal at 1460 ± 150 nM (IC50) and the “Degree of Resistance” value came to 1.14.

As for `CCP(CC)CC.[Br][Au]` [Au(PEt3)Br], the IC50 with CCRF-CEM cells was 280 ± 60 nM; in assay [1], 1400 ± 800 nM; in assay [2], above 10000 nM; in the assay on CEM/ADR5000 cells, 270 ± 50 nM. Also, the “Degree of Resistance” value in the assay with CEM/ADR5000 cells came out at 0.96.

`CCP(CC)CC.[Au+].[Cl-]` [Au(PEt3)Cl]: the IC50 is 350 ± 30 nM with CCRF-CEM cells, 2600 ± 300 nM in assay [1], above 10000 nM in assay [2] and 260 ± 40 nM in the assay with CEM/ADR5000 cells. In the assay on CEM/ADR5000 cells, the “Degree of Resistance” value is on record as 0.74.

Turning to `CC[P](CC)(CC)[Au][I]` [Au(PEt3)I], the IC50 is 320 ± 70 nM with CCRF-CEM cells, 6100 ± 400 nM in assay [1], above 10000 nM in assay [2] and 280 ± 80 nM with CEM/ADR5000 cells. In addition, in the assay with CEM/ADR5000 cells, the “Degree of Resistance” value is reported as 0.87.

In the case of `CCP(CC)CC.CCP(CC)CC.O=[N+]([O-])[O-].[Ag+]` [[Ag(PEt3)2]NO3], the “ChT-L inhibition at 10 µM” value in assay [1] is given as 38 ± 5.0%. Further, the “PGPH (C-L) inhibition at 10 µM” value in assay [2] is “n.i”. In addition, the “Degree of Resistance” value with CEM/ADR5000 cells came out at 3.05.

Molecule `CC(=O)OC[C@H]1O[C@@H]([S-])[C@H](OC(C)=O)[C@@H](OC(C)=O)[C@@H]1OC(C)=O.CCP(CC)CC.[Au+]` [auranofin, Auranofin] registered an IC50 with CCRF-CEM cells of 220 ± 80 nM. The “ChT-L inhibition at 10 µM” value in assay [1] is “n.i. ^a”. For the same molecule, the “PGPH (C-L) inhibition at 10 µM” value in assay [2] was “n.i”. In the assay on CEM/ADR5000 cells, the midpoint of inhibition, the IC50, lay at 280 ± 60 nM and the “Degree of Resistance” value is 1.27.
